Results as given in patent publication US9481646B2, “Low calcemic, highly antiproliferative, analogs of calcitriol” (The Johns Hopkins University, priority 2007, dated 2016).

Experiments:
murine keratinocytes = assay: antiproliferative activity in murine keratinocytes (standard in vitro protocol); format: cell-based; conditions: Mus musculus, Keratinocyte, read-out: Antiproliferative IC50
[1] = in vivo calciuric activity, calcium levels in rat urine; conditions: relative activity (A = 1)
human recombinant VDR = molecular target: T1, human recombinant VDR (Homo sapiens, UniProt P11473); assay: competitive binding to the human VDR
T1 construct: purchased Biomol SE-140
T1 sequence (P11473 1-427): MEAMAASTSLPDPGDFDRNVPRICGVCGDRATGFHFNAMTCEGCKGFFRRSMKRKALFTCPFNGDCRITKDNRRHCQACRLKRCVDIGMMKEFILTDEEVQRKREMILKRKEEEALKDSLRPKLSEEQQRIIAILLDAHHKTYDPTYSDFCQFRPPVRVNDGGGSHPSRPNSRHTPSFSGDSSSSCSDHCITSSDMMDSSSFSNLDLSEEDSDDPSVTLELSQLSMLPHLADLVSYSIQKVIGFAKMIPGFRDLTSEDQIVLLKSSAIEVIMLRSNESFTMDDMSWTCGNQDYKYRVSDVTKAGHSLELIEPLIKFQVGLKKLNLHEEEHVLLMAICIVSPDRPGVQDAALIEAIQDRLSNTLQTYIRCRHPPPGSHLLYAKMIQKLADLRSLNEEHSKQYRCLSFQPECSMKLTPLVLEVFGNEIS

Compound: C=C1/C(=C\C=C2/CCC[C@]3(C)[C@@H]([C@H](C)CCCC(C)(C)O)CC[C@@H]23)C[C@@H](O)C[C@@H]1O [A, 1α,25-dihydroxyvitamin D3, reference compound]
- IC50 (murine keratinocytes): 0.08 µM
- Calciuria Activity Compared to 1 [1]: 1

Compound: C=C1/C(=C\C=C2/CCC[C@]3(C)[C@@H]([C@H](C)COCC4=CCCCC4(C)C)CC[C@@H]23)C[C@@H](O)C[C@@H]1O [Analog 1d]
- IC50 (murine keratinocytes): 0.05 µM
- Calciuria Activity Compared to 1 [1]: <0.02
- IC50 (human recombinant VDR): 0.3 µM
